Results reported in patent US8956622B2, “Peptidic antagonists of class III semaphorins/neuropilins complexes” (INSERM—Institut National de la Sante et de la Recherche …, priority 2005, dated 2015).

How the values were obtained:
C6 glioma = C6 glioma cells pre-incubated with peptide and injected into the striatum, tumour development at 8 days; type: in vivo, rats
Procedure: The rat C6 glioma cell line, which is a good model of human glioma (DAI and HOLLAND, Biochim. Biophys. Acta, vol. 1551, p: M19-27, 2001), has been used to investigate how the blockade of NRP1 by using our peptidic strategy (pTM-NRP1) may interfere with cell migration and dissemination.
C6 cells (ATCC CCL-107) were stained using PKH26 (Sigma). Cells were incubated with peptides (pTM-NRP1 10^−8M or mutated pTM-NRP1 10^−8M) prior to injections for at least 2 h on ice in culture medium (composed of MEM with 5000 u/ml penicillin, 5 mg/ml streptomycin, 200 mM L-glutamine and 10% fetal calf serum). Injections of 10^6 cells were performed using a stereotaxic frame according to the following coordinates: antero-posterior, +1.6 mm relative to Bregma; L, +2 mm; H, +5 mm relative to the cortical surface.
All injections were performed in the left striatum.
Following a survival period of 8 days, the animals (3 groups of 4 rats) were killed by a lethal intra-peritoneal injection of pentobarbital before trans-cardiac perfusion with a pre-rinse of 100 ml PBS followed by 500 ml of 2% formaldehyde. The brains were post-fixed during 2 hours at 4° C. and sagittal sections (70 μm) were prepared on a vibratome.
One group of sections were mounted in PBS-glycerol (v/v) for microscopic observation, and another one was treated for immunostaining of CD34. […]

NRP1 receptor complex = biological target: T1, NRP1 receptor complex (Rattus norvegicus, UniProt Q9QWJ9); experiment: Formation of NRP1 receptor complexes, sucrose density gradient sedimentation and western blot; type: cell-based; details: C6 cells expressing NRP1 and Plexin-A1, peptide 10^−9 M for 1 h
T1 construct: C6 cells expressing NRP1 and Plexin-A1 were incubated or not with the pTM-NRP1 peptide; endogenous in cells; host or cells: rat C6 glioma cells
Procedure: To further investigate the role of the transmembrane domain of the NRP1 receptor in the formation of the NRP1 receptor complex, the formation of NRP1 complexes has been determined on C6 cells expressing NRP1 and plexin-A1 in the presence or not of the transmembrane domain peptide of NRP1 (pTM-NRP1 peptide) and of the ligand Sema3A.
C6 cells expressing NRP1 and Plexin-A1 were incubated or not with the pTM-NRP1 peptide (10^−9 M) for 1 h. The culture medium has been then replaced of HER cells stably transfected or not with a construction expressing Sema 3A. Confluent C6 have been harvested with 10 mM EDTA and centrifuged. The pellet has been washed in PBS and then diluted in lysis buffer (Tris-HCL/NaCl; 50/150; pH 8.0) with 0.1% SDS, 1 mM EDTA, 1% NP-40, 0.5% DOC, 2 mM vanadate and proteases inhibitors without SDS (PIERCE). After solubilization for 1 h at 4° C., protein amount is estimated by bicinchoninic acid method (BCA Protein Assay, PIERCE).
Sucrose density gradient sedimentation experiments were based on a step gradient containing 25%, 17%, 10% and 3% sucrose. […]
The membrane has been then incubated 2 hours with polyclonal anti-NRP1 at a 1:1000 dilution (ONCOGENE). […] Immunoreactivity has been then detected with an enhanced chemoluminescence western blot detection system (PIERCE) according to the manufacturer's instructions. […]

oligomerization of NRP1 in the presence of Sema 3A (NRP1 receptor complex): inhibited
Sequence: ILITIIAMSALGVLLGAVCGVVL [pTM-NRP1]
tumour size (C6 glioma; C6 cells treated with peptide 10^−8 M prior to injection in the left striatum, 8 days, n=4): strong reduction
immunoreactivity for CD34, a marker of neoangiogenesis (C6 glioma; C6 cells treated with peptide 10^−8 M prior to injection, brain sections at 8 days): strong reduction
